System: 186277-243-T-J2-PDC complex spheroids, viability
Assay: Anticancer human tumor 186277-243-T-J2-PDC patient-derived colon adenocarcinoma cell line growth inhibition [RAS]
Conditions: for viability, T/C: stronger effect = lower value; active = viability on the fitted dose curve at most 10% of control; inactive = the rest
Outline: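 Agents were tested in combination matrices in half-log decrements from a top concentration at or near clinical Cmax (10 microM if undetermined). Targets were multi-cell spheroids of tumour lines plus HUVEC and MSC stromal cells.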

[1] = curve of first compound, second compound 0.000949 µM
[2] = curve of first compound, second compound 0.003 µM
[3] = curve of first compound, second compound 0.00949 µM
[4] = curve of first compound, second compound 0.03 µM
[5] = curve of first compound, second compound 0.0949 µM
[6] = curve of first compound, second compound 0.3 µM
[7] = second compound 0.000949 µM, first compound 0.0316 µM
[8] = second compound 0.000949 µM, first compound 0.1 µM
[9] = second compound 0.000949 µM, first compound 0.316 µM
[10] = second compound 0.000949 µM, first compound 1 µM
[11] = second compound 0.000949 µM, first compound 3.16 µM
[12] = second compound 0.000949 µM, first compound 10 µM
[13] = second compound 0.003 µM, first compound 0.0316 µM
[14] = second compound 0.003 µM, first compound 0.1 µM
[15] = second compound 0.003 µM, first compound 0.316 µM
[16] = second compound 0.003 µM, first compound 1 µM
[17] = second compound 0.003 µM, first compound 3.16 µM
[18] = second compound 0.003 µM, first compound 10 µM
[19] = second compound 0.00949 µM, first compound 0.0316 µM
[20] = second compound 0.00949 µM, first compound 0.1 µM
[21] = second compound 0.00949 µM, first compound 0.316 µM
[22] = second compound 0.00949 µM, first compound 1 µM
[23] = second compound 0.00949 µM, first compound 3.16 µM
[24] = second compound 0.00949 µM, first compound 10 µM
[25] = second compound 0.03 µM, first compound 0.0316 µM
[26] = second compound 0.03 µM, first compound 0.1 µM
[27] = second compound 0.03 µM, first compound 0.316 µM
[28] = second compound 0.03 µM, first compound 1 µM
[29] = second compound 0.03 µM, first compound 3.16 µM
[30] = second compound 0.03 µM, first compound 10 µM
[31] = second compound 0.0949 µM, first compound 0.0316 µM
[32] = second compound 0.0949 µM, first compound 0.1 µM
[33] = second compound 0.0949 µM, first compound 0.316 µM
[34] = second compound 0.0949 µM, first compound 1 µM
[35] = second compound 0.0949 µM, first compound 3.16 µM
[36] = second compound 0.0949 µM, first compound 10 µM
[37] = second compound 0.3 µM, first compound 0.0316 µM
[38] = second compound 0.3 µM, first compound 0.1 µM
[39] = second compound 0.3 µM, first compound 0.316 µM
[40] = second compound 0.3 µM, first compound 1 µM
[41] = second compound 0.3 µM, first compound 3.16 µM
[42] = second compound 0.3 µM, first compound 10 µM
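Note: spheroids exposed to compounds for 7 days before viability read.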

CCN1CCN(Cc2ccc(Nc3ncc(F)c(-c4cc(F)c5nc(C)n(C(C)C)c5c4)n3)nc2)CC1 + C=CC(=O)N1CCN(c2nc(OCC3CCCN3C)nc3c(F)c(-c4nc(N)cc(C)c4C(F)(F)F)c(Cl)cc23)C(C)C1
inactive: viability, T/C (second compound 0.00316 µM, first compound 0.00316 µM) 136% | viability, T/C (second compound 0.00316 µM, first compound 0.01 µM) 129% | viability, T/C (second compound 0.00316 µM, first compound 0.0316 µM) 141% | viability, T/C (second compound 0.00316 µM, first compound 0.1 µM) 114% | viability, T/C (second compound 0.00316 µM, first compound 0.316 µM) 125% | viability, T/C (second compound 0.00316 µM, first compound 1 µM) 99.5% | viability, T/C (second compound 0.01 µM, first compound 0.00316 µM) 87.9% | viability, T/C (second compound 0.01 µM, first compound 0.01 µM) 108% | viability, T/C (second compound 0.01 µM, first compound 0.0316 µM) 127% | viability, T/C (second compound 0.01 µM, first compound 0.1 µM) 99.7% | viability, T/C (second compound 0.01 µM, first compound 0.316 µM) 121% | viability, T/C (second compound 0.01 µM, first compound 1 µM) 92.9% | viability, T/C (second compound 0.0316 µM, first compound 0.00316 µM) 94.6% | viability, T/C (second compound 0.0316 µM, first compound 0.01 µM) 107% | viability, T/C (second compound 0.0316 µM, first compound 0.0316 µM) 119% | viability, T/C (second compound 0.0316 µM, first compound 0.1 µM) 154% | viability, T/C (second compound 0.0316 µM, first compound 0.316 µM) 114% | viability, T/C (second compound 0.0316 µM, first compound 1 µM) 101% | viability, T/C (second compound 0.1 µM, first compound 0.00316 µM) 101% | viability, T/C (second compound 0.1 µM, first compound 0.01 µM) 112% | viability, T/C (second compound 0.1 µM, first compound 0.0316 µM) 142% | viability, T/C (second compound 0.1 µM, first compound 0.1 µM) 149% | viability, T/C (second compound 0.1 µM, first compound 0.316 µM) 138% | viability, T/C (second compound 0.1 µM, first compound 1 µM) 79.3% | viability, T/C (second compound 0.316 µM, first compound 0.00316 µM) 90.3% | viability, T/C (second compound 0.316 µM, first compound 0.01 µM) 106% | viability, T/C (second compound 0.316 µM, first compound 0.0316 µM) 117% | viability, T/C (second compound 0.316 µM, first compound 0.1 µM) 115% | viability, T/C (second compound 0.316 µM, first compound 0.316 µM) 152% | viability, T/C (second compound 0.316 µM, first compound 1 µM) 97.8% | viability, T/C (second compound 1 µM, first compound 0.00316 µM) 117% | viability, T/C (second compound 1 µM, first compound 0.01 µM) 112% | viability, T/C (second compound 1 µM, first compound 0.0316 µM) 122% | viability, T/C (second compound 1 µM, first compound 0.1 µM) 140% | viability, T/C (second compound 1 µM, first compound 0.316 µM) 135% | viability, T/C (second compound 1 µM, first compound 1 µM) 105%
> 1000 nM: IC50 (curve of first compound, second compound 0.00316 µM) | IC50 (curve of first compound, second compound 0.01 µM) | IC50 (curve of first compound, second compound 0.0316 µM) | IC50 (curve of first compound, second compound 0.1 µM) | IC50 (curve of first compound, second compound 0.316 µM) | IC50 (curve of first compound, second compound 1 µM)

CCC(CC)c1cc(NC2CCC(N)C2)n2nccc2n1 (stereo not given) + CCn1c(-c2cc(N3CCN(C)CC3)cnc2C(C)OC)c2c3cc(ccc31)-c1csc(n1)CC(NC(=O)C1CC1C)C(=O)N1CCCC(N1)C(=O)OCC(C)(C)C2
1840 nM: IC50 [1]
inactive: viability, T/C [7] 123% | viability, T/C [8] 115% | viability, T/C [9] 109% | viability, T/C [10] 101% | viability, T/C [13] 99.4% | viability, T/C [14] 100% | viability, T/C [15] 107% | viability, T/C [16] 91.9% | viability, T/C [19] 55.5% | viability, T/C [20] 54.6% | viability, T/C [21] 57.5% | viability, T/C [22] 33% | viability, T/C [25] 15.8% | viability, T/C [26] 17% | viability, T/C [27] 18.1% | viability, T/C [31] 8.36%
1730 nM: IC50 [2]
419 nM: IC50 [3]
< 31.6 nM: IC50 [4] | IC50 [5] | IC50 [6]
active: viability, T/C [11] 4.75% | viability, T/C [12] 0.22% | viability, T/C [17] 3.89% | viability, T/C [18] 0.17% | viability, T/C [23] 3.19% | viability, T/C [24] 0.17% | viability, T/C [28] 9.82% | viability, T/C [29] 3.01% | viability, T/C [30] 0.19% | viability, T/C [32] 8.25% | viability, T/C [33] 9.17% | viability, T/C [34] 5.58% | viability, T/C [35] 2.44% | viability, T/C [36] 0.29% | viability, T/C [37] 7.09% | viability, T/C [38] 6.68% | viability, T/C [39] 6.45% | viability, T/C [40] 4.66% | viability, T/C [41] 2.73% | viability, T/C [42] 0.31%

CC(=O)OC12COC1CC(O)C1(C)C(=O)C(O)C3=C(C)C(OC(=O)C(O)C(NC(=O)OC(C)(C)C)c4ccccc4)CC(O)(C(OC(=O)c4ccccc4)C21)C3(C)C (stereo not given) + CCn1c(-c2cc(N3CCN(C)CC3)cnc2C(C)OC)c2c3cc(ccc31)-c1csc(n1)CC(NC(=O)C1CC1C)C(=O)N1CCCC(N1)C(=O)OCC(C)(C)C2
< 31.6 nM: IC50 [1] | IC50 [2] | IC50 [3] | IC50 [4] | IC50 [5] | IC50 [6]
active: viability, T/C [7] 3.93% | viability, T/C [8] 3.88% | viability, T/C [9] 3.15% | viability, T/C [10] 3.35% | viability, T/C [11] 3.1% | viability, T/C [12] 2.87% | viability, T/C [13] 4.18% | viability, T/C [14] 3.41% | viability, T/C [15] 3.5% | viability, T/C [16] 3.44% | viability, T/C [17] 3.13% | viability, T/C [18] 3.15% | viability, T/C [19] 4.39% | viability, T/C [20] 3.52% | viability, T/C [21] 3.8% | viability, T/C [22] 3.26% | viability, T/C [23] 3.42% | viability, T/C [24] 3.14% | viability, T/C [25] 3.02% | viability, T/C [26] 3.1% | viability, T/C [27] 2.91% | viability, T/C [28] 3.18% | viability, T/C [29] 2.79% | viability, T/C [30] 2.64% | viability, T/C [31] 2.92% | viability, T/C [32] 2.71% | viability, T/C [33] 3.02% | viability, T/C [34] 2.38% | viability, T/C [35] 2.59% | viability, T/C [36] 2.18% | viability, T/C [37] 2.53% | viability, T/C [38] 2.47% | viability, T/C [39] 2.58% | viability, T/C [40] 2.35% | viability, T/C [41] 2.5% | viability, T/C [42] 2.28%

C[C@@H](NC(=O)c1ncnc(N)c1Cl)c1ncc(C(=O)Nc2cc(C(F)(F)F)c(Cl)cn2)s1
inactive: viability, T/C (compound 0.0316 µM) 99.8% [middle of 4 runs] | viability, T/C (compound 0.1 µM) 93.7% [middle of 4 runs] | viability, T/C (compound 0.316 µM) 102% [middle of 4 runs] | viability, T/C (compound 1 µM) 91.9% [middle of 4 runs] | viability, T/C (compound 3.16 µM) 104% [middle of 4 runs] | viability, T/C (compound 10 µM) 79.8% [middle of 4 runs]
> 10000 nM: IC50 (curve of compound)

O=C(c1ccc(F)c(F)c1Nc1ccc(I)cc1F)N1CC(O)([C@@H]2CCCCN2)C1
inactive: viability, T/C (compound 0.00316 µM) 102% [middle of 4 runs] | viability, T/C (compound 0.01 µM) 93.3% [middle of 4 runs] | viability, T/C (compound 0.0316 µM) 94.1% [middle of 4 runs] | viability, T/C (compound 0.1 µM) 39.6% [middle of 4 runs]
active: viability, T/C (compound 1 µM) 5.17% [middle of 4 runs]
9.71% [middle of 4 runs]: viability, T/C (compound 0.316 µM)
79.7 nM [middle of 4 runs]: IC50 (curve of compound)
